Drawing on PubChem BioAssay (NCI), this text covers GI50 and TGI for 22 compounds.

SMILES strings stand for the structures.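 Results reflect a 48-hour exposure of cells in 96-well plates to compound at five concentrations. The concentration for 50% growth inhibition is given as GI50. Definition used: TGI = concentration required for complete inhibition of growth.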 Where a SMILES comes first, the peptide text is derived from it. The star is where a group is joined. Boc = CC(C)(C)OC(=O)*

For the first assay, the system named is ACHN renal. As to the kind of experiment: NCI anticancer screen, dose series, 48 h.
With `COc1cc2c(cc1-c1c(C)noc1C)cc(C)c(=O)n2Cc1ccccn1`, the GI50 is 1.45 µM and the TGI is > 100 µM.

Regarding `N#CC(C#N)=CNC(=S)c1ccncc1`, the TGI was > 100 µM.

The compound `O=c1cc(N=P(c2ccccc2)(c2ccccc2)c2ccccc2)n(-c2ccccc2)c(=O)n1-c1ccccc1` showed a TGI of 45.4 µM.

In turn, `O=C(NCCCN(CCCCN(CCCNC(=O)C(F)(F)F)Cc1ccccc1)Cc1ccccc1)C(F)(F)F` displayed a TGI of 30.1 µM.

Turning to `COc1ccc(C2(CC(C)O)SCCCS2)cc1` (configuration not stated), the TGI was > 100 µM.

As to `Clc1ccc(-c2nn3c(-c4ccncc4)nnc3s2)cc1`, the TGI is > 100 µM.

Consider `Cc1ccccc1C(O)(c1nccn1C)c1nccn1C`, for which the TGI is > 100 µM.

Take `Oc1ccccc1/C=N/c1nc2cc3sc(/N=C/c4ccccc4O)nc3cc2s1`: the TGI is > 100 µM.

With `CCN(CC)CCOc1ccc(N2C(=O)c3cc(OC)c(OC)cc3C2=O)cc1`, the TGI is > 100 µM.

As to `CCOC(=N)n1c(=O)n(C2=NCCN2)c2ccccc21`, the TGI was > 100 µM.

In the case of `O=C(NCCN1CCOCC1)c1ccc2cc(C(=O)N3CC(CCl)c4ccc([N+](=O)[O-])cc43)[nH]c2c1` (configuration not stated), the TGI amounted to 45.2 µM.

As to `O=c1c2cc3c(cc2[nH]c2ncccc12)OCO3`, the TGI is > 10 µM.

As to `Cc1csc(-c2cn(C)c3c2C(=O)C(N)=CC3=O)n1`, the TGI is > 52.1 µM.

With `Nc1c(-c2cccc3ccccc23)c2ccc([N+](=O)[O-])cc2c(=O)n1-c1nc2ccccc2s1`, the TGI was > 100 µM.

In turn, `CC1CC[C@@]2(OC1)OC1C[C@H]3[C@@H]4CC[C@H]5CC(OC6OC(CO)C(OC7OC(CO)C(O)C(O)C7OC7OC(CO)C(O)C(O)C7O)C(O)C6O)CCC5(C)[C@H]4CCC3(C)C1[C@@H]2C` (some centres not stated) came in with a TGI of 6.06 µM.

With `O=c1c2ccccc2nc2[nH][nH]c(=S)n12`, the TGI was > 100 µM.

For `CC(C)(C)OC(=O)NCC(=O)NCC(=O)NCC(=O)NCC(=O)O` (Boc-GGGG-OH), the TGI is > 100 µM.

Regarding `COc1ccc(CC(O)CN2CCOCC2)cc1` (configuration not stated), the TGI was > 100 µM.

For the compound `CN(C)CCCN1C(=S)N(CCCN(C)C)c2c3cc(O)ccc3nc3c([N+](=O)[O-])ccc1c23`, the TGI worked out at 11 µM.

`COc1cc(C2SCC(=O)N2c2ccc(NC(=O)c3ccc(N4C(=O)CSC4c4cc(OC)c(OC)c(OC)c4)cc3)cc2)cc(OC)c1OC` (configuration not stated): the TGI is > 100 µM.

Take `N#C/C(=C\c1cc(Br)c(O)c(Br)c1)c1cccnc1`: the TGI is > 100 µM.

As for `CN(C)Cc1cc(C(=O)/C=C/c2ccc(O)cc2)cc(CN(C)C)c1O`, the TGI came to 53.3 µM.

The test system of a further assay is BT-549 breast. As to the kind of experiment: NCI anticancer screen, dose series, 48 h.
As for `COc1cc2c(cc1-c1c(C)noc1C)cc(C)c(=O)n2Cc1ccccn1`, the GI50 was 3.89 µM and the TGI is > 100 µM.

With `N#CC(C#N)=CNC(=S)c1ccncc1`, the TGI was determined as 80.3 µM.

With `O=c1cc(N=P(c2ccccc2)(c2ccccc2)c2ccccc2)n(-c2ccccc2)c(=O)n1-c1ccccc1`, the TGI is 95.6 µM.

On to `O=C(NCCCN(CCCCN(CCCNC(=O)C(F)(F)F)Cc1ccccc1)Cc1ccccc1)C(F)(F)F`, for which the TGI worked out at 28.1 µM.

Take `COc1ccc(C2(CC(C)O)SCCCS2)cc1` (configuration not stated): the TGI is > 100 µM.

As for `Clc1ccc(-c2nn3c(-c4ccncc4)nnc3s2)cc1`, the TGI was > 100 µM.

In the case of `Cc1ccccc1C(O)(c1nccn1C)c1nccn1C`, the TGI is > 100 µM.

As to `Oc1ccccc1/C=N/c1nc2cc3sc(/N=C/c4ccccc4O)nc3cc2s1`, the TGI is > 100 µM.

With `CCN(CC)CCOc1ccc(N2C(=O)c3cc(OC)c(OC)cc3C2=O)cc1`, the TGI is > 100 µM.

`CCOC(=N)n1c(=O)n(C2=NCCN2)c2ccccc21`: the TGI was > 100 µM.

`O=C(NCCN1CCOCC1)c1ccc2cc(C(=O)N3CC(CCl)c4ccc([N+](=O)[O-])cc43)[nH]c2c1` (configuration not stated) came in with a TGI of 92.3 µM.

For the compound `O=c1c2cc3c(cc2[nH]c2ncccc12)OCO3`, the TGI is > 10 µM.

Consider `Cc1csc(-c2cn(C)c3c2C(=O)C(N)=CC3=O)n1`, for which the TGI was > 100 µM.

For `Nc1c(-c2cccc3ccccc23)c2ccc([N+](=O)[O-])cc2c(=O)n1-c1nc2ccccc2s1`, the TGI was > 100 µM.

For the compound `CC1CC[C@@]2(OC1)OC1C[C@H]3[C@@H]4CC[C@H]5CC(OC6OC(CO)C(OC7OC(CO)C(O)C(O)C7OC7OC(CO)C(O)C(O)C7O)C(O)C6O)CCC5(C)[C@H]4CCC3(C)C1[C@@H]2C` (some centres not stated), the TGI was determined as 3.62 µM.

In the case of `O=c1c2ccccc2nc2[nH][nH]c(=S)n12`, the TGI is > 100 µM.

For the compound `CC(C)(C)OC(=O)NCC(=O)NCC(=O)NCC(=O)NCC(=O)O` (Boc-GGGG-OH), the TGI is > 100 µM.

`COc1ccc(CC(O)CN2CCOCC2)cc1` (configuration not stated): the TGI was > 100 µM.

As for `CN(C)CCCN1C(=S)N(CCCN(C)C)c2c3cc(O)ccc3nc3c([N+](=O)[O-])ccc1c23`, the TGI came to 28 µM.

As for `COc1cc(C2SCC(=O)N2c2ccc(NC(=O)c3ccc(N4C(=O)CSC4c4cc(OC)c(OC)c(OC)c4)cc3)cc2)cc(OC)c1OC` (configuration not stated), the TGI is > 100 µM.

Turning to `N#C/C(=C\c1cc(Br)c(O)c(Br)c1)c1cccnc1`, the TGI stood at 56.9 µM.

`CN(C)Cc1cc(C(=O)/C=C/c2ccc(O)cc2)cc(CN(C)C)c1O`: the TGI was > 100 µM.

A further assay deals with CAKI-1 renal. The experiment in a line: NCI anticancer screen, dose series, 48 h.
`COc1cc2c(cc1-c1c(C)noc1C)cc(C)c(=O)n2Cc1ccccn1`: the GI50 was 0.284 µM and the TGI was 23.2 µM.

As to `N#CC(C#N)=CNC(=S)c1ccncc1`, the TGI was > 100 µM.

For the compound `O=c1cc(N=P(c2ccccc2)(c2ccccc2)c2ccccc2)n(-c2ccccc2)c(=O)n1-c1ccccc1`, the TGI is > 100 µM.

`O=C(NCCCN(CCCCN(CCCNC(=O)C(F)(F)F)Cc1ccccc1)Cc1ccccc1)C(F)(F)F` returned a TGI of 26.4 µM.

For `COc1ccc(C2(CC(C)O)SCCCS2)cc1` (configuration not stated), the TGI is > 100 µM.

Regarding `Clc1ccc(-c2nn3c(-c4ccncc4)nnc3s2)cc1`, the TGI was > 100 µM.

Regarding `Cc1ccccc1C(O)(c1nccn1C)c1nccn1C`, the TGI was > 100 µM.

As for `Oc1ccccc1/C=N/c1nc2cc3sc(/N=C/c4ccccc4O)nc3cc2s1`, the TGI was > 100 µM.

For `CCN(CC)CCOc1ccc(N2C(=O)c3cc(OC)c(OC)cc3C2=O)cc1`, the TGI was > 100 µM.

`CCOC(=N)n1c(=O)n(C2=NCCN2)c2ccccc21`: the TGI was > 100 µM.
